Earlier results on five compounds are cited in publication PMC5465257, “Evaluation of JNJ-54717793 a Novel Brain Penetrant Selective Orexin 1 Receptor Antagonist in Two Rat Models of Panic Attack Provocation” (Frontiers in Pharmacology, 2017).

Data set [1] relates to GABA synthesis. More on the design: method as in earlier work. To be noted: 3.5 nmol/0.5 μl per hour, unilateral infusions; ref Shekhar and DiMicco, 1987; Abshire et al., 1988; Shekhar et al., 1996, 2006; Shekhar and Keim, 1997; cited from earlier work.
On the set-up of data set [2]: method as in Beig et al., 2015a. To be noted: systemic administration; ref Beig et al., 2015a; cited from earlier work.
Data set [3] relates to Sprague-Dawley rats. Details: method as in Bonaventure et al., 2015b; Johnson et al., 2015. To be noted: 20% CO2 model, ref Bonaventure et al., 2015b, Johnson et al.; cited from earlier work.
On the set-up of data set [4]: method as in Furlong et al., 2009. The conditions noted are these: ref Furlong et al., 2009; cited from earlier work.

Regarding `C=CC[C@H](N)C(=O)O` [1-allyglycine], in data set [1], the “reduction of local GABA concentrations” value is on record as “approximately 60%”.

With `COc1ccc(C[C@H]2c3cc(OC)c(OC)cc3CCN2[C@@H](C(=O)NC(C)C)c2ccccc2)cc1OC` [ACT335827], the “novelty stress (cage changes) induced cardioexcitation” value in data set [2] is “attenuates”.

Regarding `CC1(C)OC[C@H](NC(=O)Nc2ccc(Br)cc2Br)[C@H](c2ccccc2)O1` [JNJ-10397049], in data set [3], the “panic responses to 20% CO2” value was “did not alter”.

As for `CNC(=O)[C@@H](c1ccccc1)N1CCc2cc(OC)c(OC)cc2[C@@H]1CCc1ccc(C(F)(F)F)cc1` [almorexant], in data set [4], the “locomotor and cardiovascular responses to exploration and footshock” value was “attenuated”.

In the case of `CCN(Cc1cccnc1)C(=O)CN(c1ccc(OC)nc1)S(=O)(=O)c1ccccc1C` [EMPA, N-ethyl-2-[(6-methoxy-pyridin-3-yl)-(toluene-2-sulfonyl)-amino]-N-pyridin-3-ylmethyl-acetamide], the “novelty stress (cage changes) induced cardioexcitation” value in data set [2] is given as “attenuates”.
